Where two headings read alike, the source gives them in different places.

Test [1] concerns the target T1, human recombinant JAK2 protein (Homo sapiens, UniProt O60674).
T1 construct: purchased Carna Biosciences 08-045
Briefly: JAK2 Inhibition Assay (HTRF kinase assay). The test is classed as biochemical. Particulars: human recombinant JAK2, 2.5 μM ATP substrate solution. In a few lines: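 Recombinant human JAK2 was preincubated 15 min at room temperature with compound in buffer containing 5 mM MgCl2, 1 mM DTT and 0.01% Brij35. Substrate solution (2.5 μM ATP, 0.25 μM biotinylated TK substrate) was then added for 30 min. Phosphorylation was detected by HTRF (665/620 nm ratio; no-enzyme = 100% inhibition), and IC50 was fitted from an 8-point, 4-fold series.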
On the technique in general: In TR-FRET formats the signal depends on donor and acceptor labels being close together.

The target of test [2] is T2, human recombinant TYK2 protein (Homo sapiens, UniProt P29597).
T2 construct: purchased Carna Biosciences 08-147
T2 sequence (P29597 871-1187 limits assumed): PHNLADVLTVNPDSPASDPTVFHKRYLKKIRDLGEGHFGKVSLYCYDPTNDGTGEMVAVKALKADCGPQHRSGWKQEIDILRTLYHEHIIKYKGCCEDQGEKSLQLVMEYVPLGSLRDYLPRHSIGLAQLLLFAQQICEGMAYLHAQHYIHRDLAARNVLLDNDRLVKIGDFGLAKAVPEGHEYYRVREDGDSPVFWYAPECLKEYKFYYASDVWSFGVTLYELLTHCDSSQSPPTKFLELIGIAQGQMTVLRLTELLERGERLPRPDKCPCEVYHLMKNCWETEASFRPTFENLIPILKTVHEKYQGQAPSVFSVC
The test is described as follows: TYK2 Inhibition Assay (HTRF kinase assay). In kind it is biochemical. Particulars: human recombinant TYK2, 11.25 μM ATP substrate solution. In a few lines:
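Recombinant human TYK2 was pre-incubated 15 min at room temperature with compound, then reacted for 40 min with biotinylated tyrosine-kinase substrate and ATP (substrate solution 11.25 μM ATP, 0.5 μM substrate; 5 mM MgCl2, 0.01% Brij35). Phosphorylation was read by HTRF 665/620 ratio, normalised to no-enzyme and no-compound controls, and IC50 was fitted from 8 4-fold dilutions.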

Test [3] relates to IL-12-induced IFN-γ secretion in NK92 cells. The test is described as follows: Inhibition of IL-12-induced IFN-γ Secretion in NK92 Cells (ELISA). The conditions noted are these: 24 hours incubation, 8 concentration points, read-out: IC50 (NK92_IL12/IFNγ). In kind it is cell-based, human. In a few lines: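 NK92 cells (100,000/well, IL-2-free medium) rested overnight, then treated with compound plus IL-12 for 24 h at 37 °C. Secreted IFN-γ measured in supernatant by ELISA. Inhibition normalized to unstimulated and IL-12/0.2% DMSO controls; IC50 fitted from 8 concentrations.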
A general note: In an ELISA, binding on a coated surface is turned into a signal by an enzyme label.

T1 sequence (O60674 826-1132 limits assumed): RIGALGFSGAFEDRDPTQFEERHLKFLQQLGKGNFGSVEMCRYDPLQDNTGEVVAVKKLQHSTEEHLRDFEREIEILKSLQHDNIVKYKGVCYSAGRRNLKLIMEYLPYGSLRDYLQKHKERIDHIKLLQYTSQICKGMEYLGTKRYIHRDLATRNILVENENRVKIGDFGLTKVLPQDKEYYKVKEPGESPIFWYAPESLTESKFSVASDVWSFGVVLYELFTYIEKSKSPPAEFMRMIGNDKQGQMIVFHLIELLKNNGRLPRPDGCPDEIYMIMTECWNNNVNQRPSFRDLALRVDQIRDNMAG

With `Cn1cc(Nc2ncc(Cl)c(N3C[C@]4(C)CN(C(=O)C5(C#N)CC5)C[C@]4(C)C3)n2)cn1` [Compound 42, 1-((3aR,6aS)-5-(5-chloro-2-((1-methyl-1H-pyrazol-4-yl)amino)pyrimidin-4-yl)-3a,6a-dimethyloctahydropyrrolo[3,4-c]pyrrole-2-carbonyl)cyclopropane-1-carbonitrile], the IC50 in test [1] was determined as 20 nM; in test [2], 5.7 nM; in test [3] (Homo sapiens), 3470 nM.

For `Cn1cc(Nc2ncc(Cl)c(N3C[C@]4(C)CN(Cc5cc[nH]n5)C[C@]4(C)C3)n2)cn1` [Compound 81, 4-((3aR,6aS)-5-((1H-pyrazol-3-yl)methyl)-3a,6a-dimethylhexahydropyrrolo[3,4-c]pyrrol-2(1H)-yl)-5-chloro-N-(1-methyl-1H-pyrazol-4-yl)pyrimidin-2-amine], the IC50 in test [1] came out at 16 nM; in test [2], 50 nM; in test [3] (Homo sapiens) it was 3970 nM.

Take `Cn1cc(Nc2ncc(Cl)c(N3C[C@]4(C)CN(CC(F)(F)F)C[C@]4(C)C3)n2)cn1` [Compound 40, 5-chloro-4-((3aR,6aS)-3a,6a-dimethyl-5-(2,2,2-trifluoroethyl)hexahydropyrrolo[3,4-c]pyrrol-2(1H)-yl)-N-(1-methyl-1H-pyrazol-4-yl)pyrimidin-2-amine]: the IC50 is 1.2 nM in test [1], 0.4 nM in test [2] and 422 nM in test [3] (Homo sapiens).

`Cn1cc(Nc2ncc(Cl)c(N3C[C@@H]4CN(C(=O)c5ccno5)C[C@]4(C)C3)n2)cn1` (racemic) [Compound 64, cis-(5-(5-chloro-2-((1-methyl-1H-pyrazol-4-yl)amino)pyrimidin-4-yl)-3a-methylhexahydropyrrolo[3,4-c]pyrrol-2(1H)-yl)(isoxazol-5-yl)methanone]: the figures for the IC50 in test [1], in test [2] and in test [3] (Homo sapiens) were 3.3 nM, 0.5 nM and 162 nM, respectively.

For the compound `Cn1cc(Nc2ncc(Cl)c(N3C[C@@H]4CN(C(=O)CC#N)C[C@]4(C)C3)n2)cn1` (racemic) [Compound 63, cis-3-(5-(5-chloro-2-((1-methyl-IH-pyrazol-4-yl)amino)pyrimidin-4-yl)-3a-methylhexahydropyrrolo[3,4-c]pyrrol-2(1H)-yl)-3-oxopropanenitrile], the IC50 in test [1] was 1.2 nM; in test [2] it was 0.3 nM; in test [3] (Homo sapiens), 267 nM.

For `Cn1cc(Nc2ncc(Cl)c(N3C[C@]4(C)CN(C(=O)CO)C[C@]4(C)C3)n2)cn1` [Compound 35, 1-((3aR,6aS)-5-(5-chloro-2-((1-methyl-1H-pyrazol-4-yl)amino)pyrimidin-4-yl)-3a,6a-dimethylhexahydropyrrolo[3,4-c]pyrrol-2(1H)-yl)-2-hydroxyethan-1-one], the IC50 in test [1] was determined as 3.3 nM; in test [2] it was 0.6 nM; in test [3] (Homo sapiens) it was 453 nM.

`C[C@@]12CN(C(=O)C3CC3)C[C@]1(C)CN(c1nc(Nc3cnn(C(F)F)c3)ncc1Cl)C2` [Compound 30, ((3aR,6aS)-5-(5-chloro-2-((1-(difluoromethyl)-1H-pyrazol-4-yl)amino)pyrimidin-4-yl)-3a,6a-dimethylhexahydropyrrolo[3,4-c]pyrrol-2(1H)-yl)(cyclopropyl)methanone]: the IC50 in test [1] came to 4.6 nM; in test [2] it was 1.4 nM; in test [3] (Homo sapiens) it was 1210 nM.

`Cn1cc(Nc2ncc(Cl)c(N3C[C@H]4CN(C(=O)[C@@H]5CC5(F)F)C[C@@]4(C)C3)n2)cn1` [Compound 91, ((3aR,6aS)-5-(5-chloro-2-((1-methyl-1H-pyrazol-4-yl)amino)pyrimidin-4-yl)-3a-methylhexahydropyrrolo[3,4-c]pyrrol-2(1H)-yl)((S)-2,2-difluorocyclopropyl)methanone]: the values for the IC50 in test [1], in test [2] and in test [3] (Homo sapiens) were 2.6 nM, 3.2 nM and 388 nM, respectively.

As for “4-(3aR,6aS)-5-(isoxazol-5-ylmethyl)-3a,6a-dimetylhexahydropyrrolo[3,4-c]pyrrol-2(1H)-yl)-5-methyl-N-(1-methyl-1H-pyrazol-4-yl)pyrimidin-2-amine [Compound 67]”, the IC50 in test [1] worked out at 2.2 nM; in test [2] it was 6 nM; in test [3] it was 291 nM.

For the compound `Cn1cc(Nc2ncc(Cl)c(N3C[C@]4(C)CN(C(=O)C(C)(C)O)C[C@]4(C)C3)n2)cn1` [Compound 44, 1-((3aR,6aS)-5-(5-chloro-2((1-methyl-1H-pyrazol-4-yl)amino)pyrimidin-4-yl)-3a,6a-dimethylhexahydropyrrolo[3,4-c]pyrrol-2(1H)-yl)-2-hydroxy-2-methylpropan-1-one], the IC50 in test [1] amounted to 20 nM; in test [2], 8.6 nM; in test [3] (Homo sapiens) it was 3620 nM.

For the compound `Cn1cc(Nc2ncc(Cl)c(N3C[C@@H]4CN(C(=O)C5CC5(F)F)C[C@]4(C)C3)n2)cn1` (mixture of isomers) [Compound 65, cis-(5-(5-chloro-2-((1-methyl-1H-pyrazol-4-yl)amino)pyrimidin-4-yl)-3a-methylhexahydropyrrolo[3,4-c]pyrrol-2(1H)-yl)((S)-2,2-difluorocyclopropyl)methanone], the IC50 in test [1] turned out to be 1.3 nM; in test [2], 0.5 nM; in test [3] (Homo sapiens), 136 nM.

For `C[C@H](O)Cn1cc(Nc2ncc(Cl)c(N3C[C@]4(C)CN(C(=O)C5CC5)C[C@]4(C)C3)n2)cn1` [Compound 18], the IC50 in test [1] is 3.5 nM; in test [2], 1.6 nM; in test [3] (Homo sapiens) it was 617 nM.

Take `Cn1cc(Nc2ncc(Cl)c(N3C[C@@H]4CN(Cc5ccno5)C[C@]4(C)C3)n2)cn1` (racemic) [Compound 74, cis-5-chloro-4-(5-(isoxazol-5-ylmethyl)-3a-methylhexahydropyrrolo[3,4-c]pyrrol-2(1H)-yl)-N-(1-methyl-1H-pyrazol-4-yl)pyrimidin-2-amine]: the values for the IC50 in test [1], in test [2] and in test [3] (Homo sapiens) were 2.4 nM, 1.6 nM and 209 nM, respectively.

With `Cc1noc(CN2C[C@@]3(C)CN(c4nc(Nc5cnn(C)c5)ncc4Cl)C[C@@]3(C)C2)n1` [Compound 82, 5-chloro-4-((3aR,6aS)-3a,6a-dimethyl-5-((3-methyl-1,2,4-oxadiazol-5-yl)methyl)hexahydropyrrolo[3,4-c]pyrrol-2(1H)-yl)-N-(1-methyl-1H-pyrazol-4-yl)pyrimidin-2-amine], the IC50 in test [1] was 14 nM; in test [2], 16 nM; in test [3] (Homo sapiens), 2870 nM.

Consider `Cc1cnc(Nc2cnn(C)c2)nc1N1C[C@@H]2CN(C(=O)[C@@H]3CC3(F)F)C[C@]2(C)C1` (racemic) [Compound 72], for which the IC50 in test [1] is 4.5 nM; in test [2] it was 3.4 nM; in test [3] (Homo sapiens), 824 nM.

Consider `Cn1cc(Nc2ncc(F)c(N3C[C@]4(C)CN(CC(F)F)C[C@]4(C)C3)n2)cn1` [Compound 14, 4-((3aR,6aS)-5-(2,2-difluoroethyl)-3a,6a-dimethylhexahydropyrrolo[3,4-c]pyrrol-2(1H)-yl)-5-fluoro-N-(1-methyl-1H-pyrazol-4-yl)pyrimidin-2-amine], for which the IC50 in test [1] was found to be 68 nM; in test [2], 14 nM; in test [3] (Homo sapiens), 1320 nM.

In the case of `Cc1nnc(N2C[C@@]3(C)CN(c4nc(Nc5cnn(C)c5)ncc4Cl)C[C@@]3(C)C2)o1` [Compound 83, 5-chloro-4-((3aR,6aS)-3a,6a-dimethyl-5-(5-methyl-1,3,4-oxadiazol-2-yl)hexahydropyrrolo[3,4-c]pyrrol-2(1H)-yl)-N-(1-methyl-1H-pyrazol-4-yl)pyrimidin-2-amine], the IC50 in test [1] is 13 nM; in test [2], 7.4 nM; in test [3] (Homo sapiens) it was 4550 nM.

As to `C[C@@]12CN(C(=O)C3CC3)C[C@]1(C)CN(c1nc(Nc3cn[nH]c3)ncc1Cl)C2` [Compound 23, ((3aR,6aS)-5-(2-((1H-pyrazol-4-yl)amino)-5-chloropyrimidin-4-yl)-3a,6a-dimethylhexahydropyrrolo[3,4-c]pyrrol-2(1H)-yl)(cyclopropyl)methanone], the IC50 was 3 nM in test [1], 1 nM in test [2] and 551 nM in test [3] (Homo sapiens).

`Cn1cc(Nc2ncc(Cl)c(N3C[C@]4(C)CN(C(=O)CC(F)(F)F)C[C@]4(C)C3)n2)cn1` [Compound 48, 1-((3aR,6aS)-5-(5-chloro-2-((1-methyl-1H-pyrazol-4-yl)amino)pyrimidin-4-yl)-3a,6a-dimethylhexahydropyrrolo[3,4-c]pyrrol-2(1H)-yl)-3,3,3-trifluoropropan-1-one]: the results for the IC50 in test [1], in test [2] and in test [3] (Homo sapiens) were 2.5 nM, 0.7 nM and 709 nM, respectively.

Take `Cn1cc(Nc2ncc(Cl)c(N3C[C@]4(C)CN(C(=O)[C@H]5CC5(F)F)C[C@]4(C)C3)n2)cn1` [Compound 21]: the IC50 in test [1] was 10 nM; in test [2] it was 2 nM; in test [3] (Homo sapiens), 490 nM.

(Values after US12448382B2, “Heterocyclic compounds for mediating tyrosine kinase 2 activity” (GUANGZHOU INNOCARE PHARMA TECH CO., LTD., priority 2019, dated 2025).)
